2 compounds from US20240116921A1, “LACTAM (HETERO)[…] DERIVATIVES AS INHIBITORS OF ERBB2” (EnLiven Therapeutics, Inc., priority 2020, published 2024) can be followed below.

The test system of one test is BT-474. Description: Cell viability assay (CellTiter Glo), BT-474. In kind it is cell-based. The note with it: Homo sapiens; BT-474 cells, 72 hours, CellTiter Glo; read-out: IC50, cell viability, BT-474. For orientation: In ATP-based viability assays light output follows the ATP content of the culture.
The next test deals with A431. Description: Cell viability assay (CellTiter Glo), A431. The test is classed as cell-based. The note with it: Homo sapiens, A-431, A431 cells, 72 hours.
In a further test the target is Ba/F3 ERBB2 wt (Homo sapiens, UniProt P04626). Description: Cell viability assay, Ba/F3 ERBB2 wt. In kind it is cell-based, mouse. The note with it: Ba/F3 ERBB2 wt cells, 72 hours, CellTiter Glo; read-out: IC50, cell viability, Ba/F3 ERBB2 wt. On the procedure:
(§1) Cells were treated with compounds, and cell viability was measured as a metric of kinase inhibition.
(§2) The Ba/F3 cell line is IL-3-dependent mouse cell line derived from the C3H mouse strain. Ba/F3 cell lines were engineered to express human ERBB2 or EGFR kinases, rendering the cells IL-3 independent. The lines were generated via retroviral transduction utilizing a Moloney murine leukemia virus (MMLV) promoter, and constructs are stably integrated into the cell genome. The sequences of the ERBB2 and EGFR genes used were NCBI Reference Sequences NM_004448.3 and NM_005228.3, respectively.
(§3) Similarly, Ba/F3 cell lines engineered to express EGFR, ERBB2, or ERBB2 mutants were grown, harvested, counted and seeded at 3000 cells per well in 96-well plates. A subset of wells contained media only (low control, “LC”).
(§4) Table B1 provides the growth media and number of cells seeded per well for the each cell line.
(§5) Plates were placed in a 37° C., 5% CO2 incubator for 72 hours. Plates were then removed from the incubator and equilibrated for 15 minutes at room temperature. 40 μl of CellTiter Glo reagent (Promega) was added to measure the relative level of metabolically active cells by quantifying intracellular ATP concentrations. Plates were incubated for 30 minutes at room temperature, and luminescence was measured. Percent viability was normalized to a vehicle control only using the following formula: % viability=100×(Lumsample−LumLC)/(LumHC−Lum^LC). Graphical curves were fitted using a nonlinear regression model with a sigmoidal dose response.

The target in another test is Ba/F3 ERBB2-G776VC (Homo sapiens, UniProt P04626, DELINS776-776VC, cells depend on it). Nature of the test: Cell viability assay, Ba/F3 ERBB2-G776VC. To be noted: 72 hours, CellTiter Glo, read-out: IC50, cell viability, Ba/F3 ERBB2-G776VC. The test is classed as cell-based, mouse. The protocol:
as §1, §2, §3, §4, §5

Test [1] deals with Ba/F3 ERBB2-P780_Y781insGSP (Homo sapiens, UniProt P04626, DUP778-780, cells depend on it). Description: Cell viability assay, Ba/F3 ERBB2-P780_Y781insGSP. The test is classed as cell-based, mouse. To be noted: 72 hours, CellTiter Glo, read-out: IC50, cell viability, Ba/F3 ERBB2-P780_Y781insGSP. The protocol:
as §1, §2, §3, §4
Plates were placed in a 37° C., 5% CO2 incubator for 72 hours. Plates were then removed from the incubator and equilibrated for 15 minutes at room temperature. 40 μl of CellTiter Glo reagent (Promega) was added to measure the relative level of metabolically active cells by quantifying intracellular ATP concentrations. Plates were incubated for 30 minutes at room temperature, and luminescence was measured. […] Graphical curves were fitted using a nonlinear regression model with a sigmoidal dose response.

Test [2] has as its target Ba/F3 ERBB2-V777_G778insGC (Homo sapiens, UniProt P04626, INS778CG, cells depend on it). Description: Cell viability assay, Ba/F3 ERBB2-V777_G778insGC. The test is classed as cell-based, mouse. The note with it: 72 hours, CellTiter Glo, read-out: IC50, cell viability, Ba/F3 ERBB2-V777_G778insGC. On the procedure: as §1, §2, §3, §4, §5
The next test deals with Ba/F3 ERBB2-V777L (Homo sapiens, UniProt P04626, V777L, cells depend on it). Nature of the test: Cell viability assay, Ba/F3 ERBB2-V777L. The note with it: 72 hours, CellTiter Glo, read-out: IC50, cell viability, Ba/F3 ERBB2-V777L. The test is classed as cell-based, mouse. The protocol: as §1, §2, §3, §4, §5
The next test has as its target Ba/F3 ERBB2-T798M (Homo sapiens, UniProt P04626, T798M, cells depend on it). Description: Cell viability assay, Ba/F3 ERBB2-T798M. The note with it: 72 hours, CellTiter Glo, read-out: IC50, cell viability, Ba/F3 ERBB2-T798M. The test is classed as cell-based, mouse. The protocol:
as §1, §2, §3, §4, §5

The target in another test is Ba/F3 ERBB2-L869R (Homo sapiens, UniProt P04626, L869R, cells depend on it). Description: Cell viability assay, Ba/F3 ERBB2-L869R. The test is classed as cell-based, mouse. To be noted: 72 hours, CellTiter Glo, read-out: IC50, cell viability, Ba/F3 ERBB2-L869R. On the procedure:
as §1, §2, §3, §4, §5

For test [3], the target named is T1, phosphorylated EGFR (pEGFR) (Homo sapiens, UniProt P00533).
T1 construct: performed to measure phosphorylated EGFR levels using A431 cells (10% FBS); endogenous in cells; host or cells: A431
Nature of the test: Detection of phosphorylated EGFR (pEGFR) in EGF-stimulated A431 cells. The test is classed as cell-based. The note with it: A431 cells (10% FBS), 4 hours incubation, EGF 30 ng/mL 10 minutes, AlphaLISA. In outline: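 AlphaLISA read-out of EGFR phosphorylation after a 10-min EGF pulse (30 ng/mL final). A431 cells (10% FBS) had been exposed to compound for 4 h at 37 °C. IC50 was fitted from % inhibition normalised to DMSO and staurosporine control lysates.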
(In general: In Alpha technology, singlet oxygen from a donor bead excites a nearby acceptor bead.)

Usually IC50 stands for the concentration that inhibits the measured activity by half.

Chain of Ba/F3 ERBB2 wt (P04626 whole entry, change not shown): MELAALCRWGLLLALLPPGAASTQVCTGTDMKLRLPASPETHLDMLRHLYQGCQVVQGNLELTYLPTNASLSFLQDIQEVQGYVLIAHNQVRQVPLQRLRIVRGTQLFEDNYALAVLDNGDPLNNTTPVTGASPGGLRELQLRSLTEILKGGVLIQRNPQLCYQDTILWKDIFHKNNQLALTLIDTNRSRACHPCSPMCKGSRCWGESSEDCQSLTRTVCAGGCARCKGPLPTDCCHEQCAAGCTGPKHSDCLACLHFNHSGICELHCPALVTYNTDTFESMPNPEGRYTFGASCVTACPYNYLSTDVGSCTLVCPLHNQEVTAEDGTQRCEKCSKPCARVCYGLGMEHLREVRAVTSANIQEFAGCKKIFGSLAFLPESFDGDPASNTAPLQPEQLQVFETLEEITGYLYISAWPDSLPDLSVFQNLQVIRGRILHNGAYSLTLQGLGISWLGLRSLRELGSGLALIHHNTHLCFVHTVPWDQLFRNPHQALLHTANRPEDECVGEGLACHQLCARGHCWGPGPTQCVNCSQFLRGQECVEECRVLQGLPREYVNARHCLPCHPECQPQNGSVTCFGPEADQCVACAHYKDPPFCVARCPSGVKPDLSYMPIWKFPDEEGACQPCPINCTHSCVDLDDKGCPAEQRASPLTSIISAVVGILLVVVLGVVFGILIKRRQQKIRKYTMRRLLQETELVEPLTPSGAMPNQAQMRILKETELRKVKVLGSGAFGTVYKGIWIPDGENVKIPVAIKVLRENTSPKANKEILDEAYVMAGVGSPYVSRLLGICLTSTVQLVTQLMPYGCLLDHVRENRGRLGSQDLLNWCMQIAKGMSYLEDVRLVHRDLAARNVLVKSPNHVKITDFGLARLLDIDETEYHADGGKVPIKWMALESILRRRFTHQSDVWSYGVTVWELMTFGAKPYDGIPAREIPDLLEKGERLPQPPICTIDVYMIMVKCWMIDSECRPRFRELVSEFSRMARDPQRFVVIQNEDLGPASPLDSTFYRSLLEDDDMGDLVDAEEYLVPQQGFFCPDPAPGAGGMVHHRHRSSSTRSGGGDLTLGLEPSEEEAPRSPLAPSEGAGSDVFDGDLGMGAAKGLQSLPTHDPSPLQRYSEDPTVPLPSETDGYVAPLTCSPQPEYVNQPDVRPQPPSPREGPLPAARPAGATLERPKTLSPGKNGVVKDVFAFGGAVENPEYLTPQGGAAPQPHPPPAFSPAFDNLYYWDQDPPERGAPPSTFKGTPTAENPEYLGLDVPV
Chain of Ba/F3 ERBB2-L869R (P04626 whole entry L869R): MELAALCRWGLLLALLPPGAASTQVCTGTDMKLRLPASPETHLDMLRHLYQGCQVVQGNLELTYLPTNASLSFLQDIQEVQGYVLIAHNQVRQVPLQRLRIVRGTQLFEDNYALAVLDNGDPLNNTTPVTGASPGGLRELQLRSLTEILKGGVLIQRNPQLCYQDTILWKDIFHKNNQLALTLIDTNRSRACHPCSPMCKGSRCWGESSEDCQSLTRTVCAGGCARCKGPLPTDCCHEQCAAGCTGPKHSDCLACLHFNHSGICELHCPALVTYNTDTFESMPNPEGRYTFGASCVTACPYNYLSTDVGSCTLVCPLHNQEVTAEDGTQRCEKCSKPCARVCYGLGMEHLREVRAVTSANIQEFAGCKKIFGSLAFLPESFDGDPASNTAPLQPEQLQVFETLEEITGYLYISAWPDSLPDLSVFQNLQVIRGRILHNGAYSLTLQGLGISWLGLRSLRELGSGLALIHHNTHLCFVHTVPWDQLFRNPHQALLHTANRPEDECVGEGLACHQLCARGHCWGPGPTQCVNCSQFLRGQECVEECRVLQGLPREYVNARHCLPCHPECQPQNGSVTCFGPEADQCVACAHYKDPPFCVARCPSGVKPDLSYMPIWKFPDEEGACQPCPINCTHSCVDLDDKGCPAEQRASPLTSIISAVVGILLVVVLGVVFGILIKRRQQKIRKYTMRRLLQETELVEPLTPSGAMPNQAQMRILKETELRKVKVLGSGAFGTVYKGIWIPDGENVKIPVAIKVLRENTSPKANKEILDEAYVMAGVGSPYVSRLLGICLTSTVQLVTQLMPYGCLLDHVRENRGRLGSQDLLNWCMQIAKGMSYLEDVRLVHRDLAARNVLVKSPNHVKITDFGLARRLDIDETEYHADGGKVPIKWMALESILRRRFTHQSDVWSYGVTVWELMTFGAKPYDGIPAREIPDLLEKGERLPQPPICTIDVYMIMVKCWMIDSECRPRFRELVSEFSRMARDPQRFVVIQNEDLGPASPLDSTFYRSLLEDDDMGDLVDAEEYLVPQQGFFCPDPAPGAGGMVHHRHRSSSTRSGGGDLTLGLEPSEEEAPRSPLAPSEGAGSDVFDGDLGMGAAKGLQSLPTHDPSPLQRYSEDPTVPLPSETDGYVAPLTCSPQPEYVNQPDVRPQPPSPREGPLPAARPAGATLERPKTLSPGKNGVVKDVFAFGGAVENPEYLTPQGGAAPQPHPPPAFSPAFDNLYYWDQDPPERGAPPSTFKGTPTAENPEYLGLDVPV
Chain of Ba/F3 ERBB2-T798M (P04626 whole entry T798M): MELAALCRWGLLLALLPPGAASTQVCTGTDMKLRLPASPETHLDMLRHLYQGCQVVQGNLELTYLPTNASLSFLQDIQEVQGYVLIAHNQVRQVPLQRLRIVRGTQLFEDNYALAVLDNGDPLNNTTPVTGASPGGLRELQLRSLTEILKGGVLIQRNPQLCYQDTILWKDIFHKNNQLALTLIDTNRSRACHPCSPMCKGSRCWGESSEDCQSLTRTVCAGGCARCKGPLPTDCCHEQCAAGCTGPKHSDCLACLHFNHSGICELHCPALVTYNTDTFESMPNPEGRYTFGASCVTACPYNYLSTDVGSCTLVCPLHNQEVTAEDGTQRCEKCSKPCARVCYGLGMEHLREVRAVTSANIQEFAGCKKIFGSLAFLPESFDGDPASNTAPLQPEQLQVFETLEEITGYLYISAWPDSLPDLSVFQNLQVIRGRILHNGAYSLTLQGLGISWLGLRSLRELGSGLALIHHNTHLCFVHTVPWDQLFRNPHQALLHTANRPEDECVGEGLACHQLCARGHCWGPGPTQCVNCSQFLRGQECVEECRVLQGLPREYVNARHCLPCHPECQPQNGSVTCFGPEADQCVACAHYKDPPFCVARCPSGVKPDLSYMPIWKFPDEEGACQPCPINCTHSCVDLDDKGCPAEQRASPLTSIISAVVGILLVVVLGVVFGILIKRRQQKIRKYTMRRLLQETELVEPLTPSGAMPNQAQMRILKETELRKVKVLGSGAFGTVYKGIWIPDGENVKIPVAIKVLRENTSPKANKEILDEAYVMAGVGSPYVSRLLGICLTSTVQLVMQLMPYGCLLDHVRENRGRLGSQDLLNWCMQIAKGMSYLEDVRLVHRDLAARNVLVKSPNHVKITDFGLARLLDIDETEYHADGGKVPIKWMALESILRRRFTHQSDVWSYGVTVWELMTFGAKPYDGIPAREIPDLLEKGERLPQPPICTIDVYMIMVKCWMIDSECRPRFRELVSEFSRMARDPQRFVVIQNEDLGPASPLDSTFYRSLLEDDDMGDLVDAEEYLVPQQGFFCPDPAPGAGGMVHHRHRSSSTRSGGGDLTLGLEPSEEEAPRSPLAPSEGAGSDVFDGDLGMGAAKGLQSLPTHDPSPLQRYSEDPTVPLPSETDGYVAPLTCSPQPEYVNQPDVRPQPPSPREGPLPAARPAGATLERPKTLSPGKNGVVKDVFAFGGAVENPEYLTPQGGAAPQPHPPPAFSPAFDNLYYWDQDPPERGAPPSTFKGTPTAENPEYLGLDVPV
T1 sequence (P00533 25-1210): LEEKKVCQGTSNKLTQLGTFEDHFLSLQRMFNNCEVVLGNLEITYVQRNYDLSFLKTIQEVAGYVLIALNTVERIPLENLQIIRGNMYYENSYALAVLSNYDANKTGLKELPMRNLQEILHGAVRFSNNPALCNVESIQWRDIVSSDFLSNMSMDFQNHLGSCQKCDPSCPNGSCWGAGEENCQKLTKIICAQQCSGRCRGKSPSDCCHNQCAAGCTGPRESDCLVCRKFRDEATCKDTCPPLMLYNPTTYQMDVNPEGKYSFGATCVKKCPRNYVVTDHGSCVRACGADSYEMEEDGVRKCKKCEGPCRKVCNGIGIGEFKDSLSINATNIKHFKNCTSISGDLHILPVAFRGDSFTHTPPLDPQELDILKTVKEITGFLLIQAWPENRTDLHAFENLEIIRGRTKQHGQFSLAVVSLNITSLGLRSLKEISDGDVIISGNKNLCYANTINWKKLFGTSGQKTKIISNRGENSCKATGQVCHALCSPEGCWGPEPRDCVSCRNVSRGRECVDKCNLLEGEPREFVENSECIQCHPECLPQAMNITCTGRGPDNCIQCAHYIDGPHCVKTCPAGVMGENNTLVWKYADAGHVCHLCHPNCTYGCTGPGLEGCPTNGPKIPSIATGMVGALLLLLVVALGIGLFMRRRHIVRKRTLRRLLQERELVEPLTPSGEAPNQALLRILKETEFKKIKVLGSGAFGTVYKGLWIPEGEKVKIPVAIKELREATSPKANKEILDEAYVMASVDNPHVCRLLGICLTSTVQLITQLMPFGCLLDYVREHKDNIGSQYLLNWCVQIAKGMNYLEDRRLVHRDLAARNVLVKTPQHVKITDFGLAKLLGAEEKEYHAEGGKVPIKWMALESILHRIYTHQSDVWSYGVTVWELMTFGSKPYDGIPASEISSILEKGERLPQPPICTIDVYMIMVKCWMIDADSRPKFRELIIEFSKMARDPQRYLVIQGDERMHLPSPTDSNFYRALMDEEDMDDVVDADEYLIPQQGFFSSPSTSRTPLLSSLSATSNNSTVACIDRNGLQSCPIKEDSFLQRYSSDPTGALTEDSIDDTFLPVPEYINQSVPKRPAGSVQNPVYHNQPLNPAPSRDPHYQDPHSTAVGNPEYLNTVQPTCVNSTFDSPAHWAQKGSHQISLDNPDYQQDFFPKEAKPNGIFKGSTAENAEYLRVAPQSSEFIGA

Regarding `C=C1CCN(c2ccc3ncnc(Nc4ccc(Oc5ccn6ncnc6c5)c(C)c4)c3c2)C1=O` [Compound 1, 1-[4-[(3-methyl-4-[[1,2,4]triazolo[1,5-a]pyridin-7-yloxy]phenyl)amino]quinazolin-6-yl]-3-methylidenepyrrolidin-2-one], the values for the IC50 (in the test with BT-474; with A431; in [3]) were 7.45 nM, 5800 nM and 1230 nM, respectively. Also, the GI50 is 2.3 nM on Ba/F3 ERBB2 wt; 16 nM on Ba/F3 ERBB2-G776VC; 3.4 nM in [1]; 0.82 nM in test [2]; 0.41 nM on Ba/F3 ERBB2-V777L; 151 nM at Ba/F3 ERBB2-T798M. Besides, the GI50 at Ba/F3 ERBB2-L869R came out at 3.6 nM.
For `C=C1CCN(c2ccc3ncnc(Nc4ccc(Oc5ccn6ccnc6c5)c(C)c4)c3c2)C1=O` [Compound 4, 1-[4-[(4-[imidazo[1,2-a]pyridin-7-yloxy]-3-methylphenyl)amino]quinazolin-6-yl]-3-methylidenepyrrolidin-2-one], the IC50 with BT-474 was determined as 16.3 nM; in the test with A431 it was 1280 nM; in [3] it was 205 nM. Also, the GI50 was found to be 3.9 nM on Ba/F3 ERBB2 wt; 7.5 nM at Ba/F3 ERBB2-G776VC; 2.6 nM in test [1]; 1.8 nM in test [2]; 1.3 nM at Ba/F3 ERBB2-V777L; 154 nM on Ba/F3 ERBB2-T798M. In addition, the GI50 at Ba/F3 ERBB2-L869R was 4.8 nM.
